In patent EP4603105A1, “PHARMACEUTICAL COMPOSITION CONTAINING CYCLIC COMPOUND HAVING SELECTIVE KRAS INHIBITORY EFFECT AGAINST HRAS AND NRAS” (CHUGAI SEIYAKU KABUSHIKI KAISHA, priority 2022, dated 2024):
*1 amine or outer side, *2 acyl side, *3 side chain or, on linkers, in order; H or OH if unused. Where a SMILES comes first, the peptide text is derived from it. Bridges are numbered along the chain shown (N, C = ends). [ ]: non-standard residue; d: D form. The star is where a group is joined. hPhe(3,5-F2-4-CF3) = N[C@@H](CCc1cc(F)c(C(F)(F)F)c(F)c1)C(=O)O; hPhe(3-Cl-4-CF3) = N[C@@H](CCc1ccc(C(F)(F)F)c(Cl)c1)C(=O)O; NPrPhe(4-CF3) = CCCN[C@@H](Cc1ccc(C(F)(F)F)cc1)C(=O)O; NMeGly(cPent) = CN[C@H](C(=O)O)C1CCCC1; Pro(4,4-F2) = O=C(O)[C@@H]1CC(F)(F)CN1; Ac4c(3,3-F2) = NC1(C(=O)O)CC(F)(F)C1; X3 = CCC[C@](C)(N[*:1])C(=O)[*:2]; NMeD = CN[C@@H](CC(=O)O)C(=O)O; NMeL = CN[C@@H](CC(C)C)C(=O)O; Morpholide = C1CN(*)CCO1; Ac5c = NC1(C(=O)O)CCCC1; Aze = O=C(O)[C@@H]1CCN1; Sar = CNCC(=O)O

Columns and labels:
[1] = target: GDP-bound NRAS wild-type protein (Homo sapiens, UniProt P01111); experiment: Binding to NRAS by surface plasmon resonance (SPR), KD and KD ratio to KRAS
GDP-bound NRAS wild-type protein, sequence (P01111 whole entry): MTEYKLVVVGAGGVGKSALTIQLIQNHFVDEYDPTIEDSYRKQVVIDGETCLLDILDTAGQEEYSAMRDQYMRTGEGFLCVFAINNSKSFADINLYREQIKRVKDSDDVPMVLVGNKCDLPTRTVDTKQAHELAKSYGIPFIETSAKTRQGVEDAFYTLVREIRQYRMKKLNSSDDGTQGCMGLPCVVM
Procedure, shortened: (§1)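 Each cycle, GDP-bound biotin-Avi RAS was captured (~100–300 RU), compound concentrations were injected low to high for 75 s each at 100 µL/min, then the chip was regenerated. Buffer: HBS pH 7.4, 10 mM MgCl2, 10 µM GDP, 1 mM DTT, 4% DMSO; 30°C. KD from a 1:1 binding model.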

HRAS wild-type protein = HRAS wild-type protein (Homo sapiens, UniProt P01112); experiment: Binding to HRAS by surface plasmon resonance (SPR), KD and KD ratio to KRAS
HRAS wild-type protein, sequence (P01112 whole entry): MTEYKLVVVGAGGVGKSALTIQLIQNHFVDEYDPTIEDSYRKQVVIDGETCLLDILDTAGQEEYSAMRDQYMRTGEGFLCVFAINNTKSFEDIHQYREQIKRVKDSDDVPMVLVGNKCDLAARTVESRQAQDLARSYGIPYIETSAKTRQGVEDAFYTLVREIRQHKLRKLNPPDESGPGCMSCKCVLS
Procedure, shortened: as §1

[2] = system: human lung cancer strain NCI-H441; format: cell-based
Procedure, shortened: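 Signal came from […] measured per well once the reagent was added. Beforehand, cells were cultured at 37°C and 5% carbon dioxide on a compound series serially diluted in dimethyl sulfoxide.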

[3] = ratio of the KD value with respect to GDP-bound NRAS wild-type protein to the KD value with respect to KRAS
[4] = ratio of the KD value with respect to HRAS wild-type protein to the KD value with respect to KRAS
[5] = ratio of KD for GDP-bound NRAS wild-type protein to KD for KRAS
[6] = ratio of KD for HRAS wild-type protein to KD for KRAS

Compound | NRAS /KRAS [1, 3] | HRAS /KRAS (HRAS wild-type protein; [4]) | IC50 [2] [nM] | NRAS /KRAS [1, 5] | HRAS /KRAS (HRAS wild-type protein; [6]) | NRAS /KRAS ([1]; ratio of KD value for GDP-bound NRAS wild-type protein to KD value for KRAS (SPR)) | HRAS /KRAS (HRAS wild-type protein; ratio of KD value for HRAS wild-type protein to KD value for KRAS (SPR))
CCCN1C(=O)CN(C)C(=O)CNC(=O)[C@H]([C@@H](C)CC)NC(=O)[C@H](CC(C)C)N(C)C(=O)C[C@@H](C(=O)N2CCOCC2)N(C)C(=O)[C@H](C2CCCC2)N(C)C(=O)C2(CCCC2)NC(=O)[C@@H]2CC(F)(F)CN2C(=O)[C@H](CCc2ccc(C(F)(F)F)c(Cl)c2)NC(=O)CN(C)C(=O)[C@@H]1Cc1ccc(C(F)(F)F)cc1 [PP0394] ([NMeL]IG[Sar][NPrPhe(4-CF3)][Sar][hPhe(3-Cl-4-CF3)][Pro(4,4-F2)][Ac5c][NMeGly(cPent)][NMeD]-Morpholide; lactam N-11) | C (A compound having a KD ratio of 0.1 or more and less than 3 is denoted as C) | C (A compound having a KD ratio of 0.1 or more and less than 3 is denoted as C) | 2.6 |  |  |  | 
CCC(CC)[C@H]1C(=O)N(C)[C@H](C(=O)N(C)C)CC(=O)N(C)[C@@H](COC)C(=O)N[C@@H]([C@@H](C)CC)C(=O)N(C)CC(=O)N(C)[C@H]2C/C=C\CCN(C2=O)[C@@H](Cc2ccc(C(F)(F)F)cc2)C(=O)N(C)CC(=O)N[C@@H](CCc2ccc(Cl)c(Cl)c2)C(=O)N2CCCCC[C@H]2C(=O)NC2(CC(C)(C)C2)C(=O)N1C [PP2972] |  |  | 81.6 | AA (a compound having 20 or more is denoted as AA) | A (a compound having 10 or more and less than 20 is denoted as A) |  | 
CCO[C@@H]1C[C@H]2C(=O)NC3(CCC3)C(=O)N(C)[C@@H](C3CCCC3)C(=O)N(C)[C@H](C(=O)N(C)C)CC(=O)N(C)[C@H]3CCCCCc4ccc(cc4)C[C@@H](C(=O)N(C)CC(=O)N[C@@H](CCc4ccc(C(F)(F)F)c(OC)c4)C(=O)N2C1)N1CC/C=C\C[C@@H](C1=O)N(C)C(=O)CN(C)C(=O)[C@H]([C@@H](C)CC)NC3=O [PP2262] | A (a compound having 10 or more and less than 20 is denoted as A) | B (a compound having 3 or more and less than 10 is denoted as B) | 3.8 |  |  |  | 
CCCN1C(=O)[C@@H]2CCN2C(=O)CN(C)C(=O)[C@H]([C@@H](C)CC)NC(=O)[C@H](CC(C)C)N(C)C(=O)C[C@@H](C(=O)N2CCOCC2)N(C)C(=O)[C@H](C2CCCC2)N(C)C(=O)C2(CC(F)(F)C2)NC(=O)[C@@H]2CCCN2C(=O)[C@H](CCc2cc(F)c(C(F)(F)F)c(F)c2)NC(=O)CN(C)C(=O)[C@@H]1Cc1ccc(C(F)(F)F)cc1 [PP0802] ([NMeL]I[Sar][Aze][NPrPhe(4-CF3)][Sar][hPhe(3,5-F2-4-CF3)]P[Ac4c(3,3-F2)][NMeGly(cPent)][NMeD]-Morpholide; lactam N-11) |  |  | 6.5 | C (A compound having a KD ratio of 0.1 or more and less than 3 is denoted as C) | B (a compound having 3 or more and less than 10 is denoted as B) |  | 
CCC[C@H]1C(=O)N[C@@H]([C@@H](C)CC)C(=O)N(C)CC(=O)N(C)[C@H]2C/C=C\CCN(C2=O)[C@@H](Cc2ccc(C)cc2)C(=O)N(C)CC(=O)N[C@@H](CCc2ccc(Cl)c(OC)c2)C(=O)N2C[C@H](OCC)C[C@H]2C(=O)NC2(CC(C)(C)C2)C(=O)N(C)[C@@H](C2CCCC2)C(=O)N(C)[C@H](C(=O)N(C)C)CC(=O)N1C [PP2790] |  |  | 59.4 | A (a compound having 10 or more and less than 20 is denoted as A) | A (a compound having 10 or more and less than 20 is denoted as A) |  | 
CCO[C@@H]1C[C@H]2C(=O)NC3(CCCC3)C(=O)N(C)[C@@H](C3CCCC3)C(=O)N(C)[C@H](C(=O)N(C)C)CC(=O)N(C)[C@@H](C)C(=O)N[C@@H]([C@@H](C)CC)C(=O)N(C)CC(=O)N(C)[C@H]3CCCCCN(C3=O)[C@@H](Cc3ccc(C(F)(F)F)cc3)C(=O)N(C)CC(=O)N[C@@H](CCc3cc(F)c(C(F)(F)F)c(F)c3)C(=O)N2C1 [PP0475] | B (a compound having 3 or more and less than 10 is denoted as B) | B (a compound having 3 or more and less than 10 is denoted as B) | 18.7 |  |  |  | 
CCOC[C@H]1C(=O)N[C@@H]([C@@H](C)CC)C(=O)N(C)CC(=O)N(C)[C@H]2C/C=C\CCN(C2=O)[C@@H](CC2CCC(F)(F)CC2)C(=O)N(C)CC(=O)N[C@@H](CCc2ccc(C(F)(F)F)c(OC)c2)C(=O)N2C[C@H](OCC)C[C@H]2C(=O)N(C)C2(CCC2)C(=O)N(C)[C@@H](C(CC)CC)C(=O)N(C)[C@H](C(=O)N(C)C)CC(=O)N1C [PP2347] | A (a compound having 10 or more and less than 20 is denoted as A) | A (a compound having 10 or more and less than 20 is denoted as A) | 143 |  |  |  | 
CCO[C@@H]1C[C@H]2C(=O)NC3(CC(F)(F)C3)C(=O)N(C)[C@@H](C3CCCC3)C(=O)N(C)[C@H](C(=O)N3CCOCC3)CC(=O)N(C)[C@@H](CC(C)C)C(=O)N[C@@H]([C@@H](C)CC)C(=O)N(C)CC(=O)N(C)[C@H]3CC=C(C)CN(C3=O)[C@@H](Cc3ccc(C(F)(F)F)cc3)C(=O)N(C)CC(=O)N[C@@H](CCc3cc(F)c(C(F)(F)F)c(F)c3)C(=O)N2C1 [PP0828] |  |  | 7.3 | C (A compound having a KD ratio of 0.1 or more and less than 3 is denoted as C) | C (A compound having a KD ratio of 0.1 or more and less than 3 is denoted as C) |  | 
CC[C@H](C)[C@@H]1NC(=O)[C@H](CC)N(C)C(=O)C[C@@H](C(=O)N(C)C)N(C)C(=O)[C@H](C2CCCC2)N(C)C(=O)C2(CCC2)N(C)C(=O)[C@@H]2CCCN2C(=O)[C@H](CCc2cc(F)c(C(F)(F)F)c(F)c2)NC(=O)CN(C)C(=O)[C@H](Cc2ccc(C)cc2)N2CC/C=C\C[C@@H](C2=O)N(C)C(=O)[C@@H]2CCCN2C1=O [PP1786] |  |  | 11.4 |  |  | A (a compound having 10 or more and less than 20 is denoted as A) | B (a compound having 3 or more and less than 10 is denoted as B)
CCO[C@@H]1C[C@H]2C(=O)NC3(CCCC3)C(=O)N(C)[C@@H](C3CCCC3)C(=O)N(C)[C@H](C(=O)N(C)C)CC(=O)N(C)[C@@H](CC(C)C)C(=O)N[C@@H]([C@@H](C)CC)C(=O)N(C)CC(=O)N(C)[C@H]3CCCCCN(C3=O)[C@@H](Cc3ccc(C(F)(F)F)cc3)C(=O)N(C)CC(=O)N[C@@H](CCc3cc(F)c(C(F)(F)F)c(F)c3)C(=O)N2C1 [PP0468] | B (a compound having 3 or more and less than 10 is denoted as B) | B (a compound having 3 or more and less than 10 is denoted as B) | 37.2 |  |  |  | 
CCO[C@@H]1C[C@H]2C(=O)NC3(CCC3)C(=O)N(C)[C@@H](C3CCCC3)C(=O)N[C@H](C(=O)N(C)C)CC(=O)N(C)[C@@H](CC)C(=O)N[C@@H]([C@@H](C)CC)C(=O)N(C)CC(=O)N(C)[C@H]3C/C=C\CCN(C3=O)[C@@H](Cc3ccc(C(F)(F)F)cc3)C(=O)N(C)CC(=O)N[C@@H](CCc3cc(F)c(C(F)(F)F)c(F)c3)C(=O)N2C1 [PP1094] |  |  | 778 | A (a compound having 10 or more and less than 20 is denoted as A) | B (a compound having 3 or more and less than 10 is denoted as B) |  | 
CCCN1C(=O)CN(C)C(=O)CN(C)C(=O)[C@H]([C@@H](C)CC)NC(=O)[C@H](CC(C)C)N(C)C(=O)C[C@@H](C(=O)N2CCOCC2)N(C)C(=O)[C@H](C2CCCC2)N(C)C(=O)[C@](C)(CCC)NC(=O)[C@@H]2CCCN2C(=O)[C@H](CCc2cc(F)c(C(F)(F)F)c(F)c2)NC(=O)CN(C)C(=O)[C@@H]1Cc1ccc(C(F)(F)F)cc1 [PP0758] ([NMeL]I[Sar][Sar][NPrPhe(4-CF3)][Sar][hPhe(3,5-F2-4-CF3)]P[X3][NMeGly(cPent)][NMeD]-Morpholide; lactam N-11) | B (a compound having 3 or more and less than 10 is denoted as B) | C (A compound having a KD ratio of 0.1 or more and less than 3 is denoted as C) | 153 |  |  |  | 
CCO[C@@H]1C[C@H]2C(=O)NC3(CCC3)C(=O)N(C)[C@@H](CC(C)(C)C)C(=O)N(C)[C@H](C(=O)N3CCCC3)CC(=O)N(C)[C@@H](CC)C(=O)N[C@@H]([C@@H](C)CC)C(=O)N(C)CC(=O)N(C)[C@H]3C/C=C\CCN(C3=O)[C@@H](CC3CCCCC3)C(=O)N(C)CC(=O)N[C@@H](CCc3cc(F)c(C(F)(F)F)c(F)c3)C(=O)N2C1 [PP2772] |  |  | 28.1 | B (a compound having 3 or more and less than 10 is denoted as B) | B (a compound having 3 or more and less than 10 is denoted as B) |  | 
CC[C@H](C)[C@@H]1NC(=O)[C@H](C(C)C)N(C)C(=O)C[C@@H](C(=O)N(C)CC)N(C)C(=O)[C@H](C2CCCC2)N(C)C(=O)C2(CC(C)(C)C2)NC(=O)[C@@H]2C[C@H](C)CN2C(=O)[C@H](CCc2cc(F)c(C(F)(F)F)c(F)c2)NC(=O)CN(C)C(=O)[C@H](Cc2ccc(C(F)(F)F)cc2)N2CC/C=C\C[C@@H](C2=O)N(C)C(=O)CN(C)C1=O [PP1976] | AA (a compound having 20 or more is denoted as AA) | A (a compound having 10 or more and less than 20 is denoted as A) | 92 |  |  |  | 
